Tested on: eIF2-GTP-Met-tRNAi ternary complex
Assay: Ternary complex assay (dual luciferase, firefly/renilla ratio) in stable KLN-tTA/pBISA-DL(ATF-4) cells; HTS and hit confirmation
Format: cell-based, mouse
Parameters: Activity 10 uM / Activity 2.5 uM / Activity 5 uM: unit not given here
Conditions: confirmed hits of the screen (Table 5); for Activity 2.5 uM: compound at 2.5 uM; for Activity 10 uM: compound at 10 uM; for Activity 5 uM: compound at 5 uM
Text: For assay development, a bi-directional plasmid was designed in which a common promoter/enhancer complex drives the transcription of firefly luciferase (F-luc) ORF fused to the 5′ untranslated region (UTR) of ATF-4, and of the renilla luciferase (R-luc) ORF fused to a 90-nucleotide 5′ UTR derived from the plasmid (FIG. 6A). Because the tetracycline-regulated transactivator ((tTA), required for driving transcription from this vector) is not normally expressed in the mammalian cells, stable KLN cancer cells were constructed that expressed tTA (KLN-tTA).
The KLN-tTA colonies that drove expression of reporter genes from pBISA-DL plasmid were selected by transient transfection and dual luciferase assay. One of these KLN-tTA cell lines was transfected with the pBISA-DL^(ATF-4) expression vector, stable colonies were selected by dual luciferase assay and expanded. To determine if reduced availability of the eIF2*GTP*Met-tRNAi ternary complex increased the translation of firefly luciferase and decreased translation of renilla luciferase, selected KLN-tTA/pBISA-DL^(AFT-4) colonies were treated with thapsigargin (TG) or tunicamycin (TU), two agents known to cause phosphorylation of eIF2α.
This assay was then adapted for high throughput screening in 96 and 384 well plates. This was done by evaluating the cell density, length of exposure to compounds, DMSO tolerance and optimum firefly and renilla substrate. We then challenged these cells with thapsigargin or DMSO. […] Cell-based assays usually have higher variation than homogeneous in vitro assays due to position effect in the plate, and other variables associated with handling of cells and the plates.
Screening was conducted in 384 well white opaque plates (Nalge Nunc), 100 μl volume RPMI+10% fetal bovine serum. Cells were plated at the sub-confluent density of 10,000 cells/well, and allowed to attach for a period of 16-18 hours at 37° C., 5% CO2. Compounds were added as 1 μl of a 1 mM DMSO stock solution for a final screening concentration of 10 μM, using low-volume tips for transfer (Molecular Bioproducts). Cells were then incubated in the presence of compound for an additional sixteen hours, again at 37° C., 5% CO2. Following incubation 70 μl of the culture medium was removed from each well to allow for reagent addition and plates were allowed to equilibrate to room temperature for thirty minutes. Firefly luciferase reporter activity was then read by the addition of thirty microliters of Dual Glo Luciferase reagent (Promega), followed by one hour incubation at room temperature to allow for adequate signal buildup. Luminescence counting was conducted on a Microbeta Trilux using a 1 second read time. Renilla luciferase reporter activity was measured following addition of 30 μl Stop and Glo Luciferase reagent (Promega) and incubation identical to the one carried out for the firefly luciferase one.
Compound scores were interpreted as firefly luciferase activity divided by renilla luciferase activity, normalized to the plate's DMSO control. […] All data analysis was conducted using the BioAssay HTS software package (CambridgeSoft).
102,709 compounds in the NCI Open Chemical Repository were then screened using this HTS assay. […] Initial hits were confirmed by repeating the same dual luciferase assay in 96 well plates. Briefly, 20,000 cells/well were plated in triplicate for each concentration (10, 5 and 2.5 μM) of the compounds.

| Structure (SMILES) | Activity 2.5 uM | Activity 10 uM | Activity 5 uM |
| --- | --- | --- | --- |
| CCC[N+]1=C(/C=C/c2cc(C)c3cccnc3c2O)C(C)(C)c2ccccc21 [Compound 91815] | 3.3 | 15.17 |  |
| CC1=C/C(=C\C=C2/N(C)c3c(C)cccc3C2(C)C)C(=O)c2ncccc21 [Compound 91816] | 17.64 | 29.75 |  |
| Cc1ccc(O)c(-n2nc3ccccc3n2)c1 [Compound 91885] |  | 4.473 | 3.742 |
| O=C1c2ccccc2C(=O)c2c1ccc1c2[nH]c2ccccc21 [Compound 92938] | 3.41 | 4.68 |  |
| COc1ccc(-c2coc3cc(O)ccc3c2=O)cc1 [Compound 93360] |  | 10.283 | 11.08 |
| Cc1cc2c(C)c3cccc[n+]3cc2c2ccccc12.[O-][Cl+3]([O-])([O-])[O-] [Compound 93861] |  | 3.171 | 2.622 |
| Cc1cc(/C=N/Nc2ccc3ccccc3n2)c(O)c2ncccc12 [Compound 94029] |  | 3.2135 | 1.934 |
| O=C(OC1CC2CC1C1CC=CC21)c1ccc([N+](=O)[O-])cc1 (centres unmarked) [Compound 94582] |  | 17.458 | 17.83 |
| O=C(OC1CC2CC1C1CC3OC3C21)c1ccccc1 (centres unmarked) [Compound 94585] |  | 3.525 | 3.148 |
| COc1ccc([N+](=O)[O-])c(C(OC(C)=O)OC(C)=O)c1OC(C)=O [Compound 95832] | 0.46 | 3.2 |  |
| ClCCN(CCCl)c1ccc(C2N(Cc3ccccc3)c3ccccc3N2Cc2ccccc2)cc1 [Compound 96306] |  | 5.7 | 2.2 |
| CN(CCCl)c1ccc(C2N(Cc3ccccc3)c3ccccc3N2Cc2ccccc2)cc1 [Compound 96375] |  | 5.9 | 2 |
| CN(C)c1ccc(/C=C/c2nc3ccccc3[nH]2)cc1 [Compound 96942] | 4.17 | 7.54 |  |
| CCCCCCCCCCCCCCCCCC[S+](C)CC.[I-] (centres unmarked) [Compound 97372] | 1.62 | 4.98 |  |
| Cl.Nc1cc2ccccc2c2c1ccc1ccccc12 [Compound 97681] | 1.17 | 8.98 |  |
| COc1ccc(C2(C)C(C#N)(C#N)C2(C#N)C#N)cc1 [Compound 98409] |  | 25.659 | 10.997 |
| NP(Br)(c1ccccc1)(c1ccccc1)c1ccccc1 [Compound 99047] |  | 13.186 | 14.82 |
| Oc1c(Cl)cc(Cl)cc1C1N(Cc2ccc(N(CCCl)CCCl)cc2)CCCN1Cc1ccc(N(CCCl)CCCl)cc1 [Compound 99639] | 0.7 | 8.32 |  |
| COc1ccc(C2=Cc3ccc(OC(C)=O)cc3OC2)cc1 [Compound 99696] |  | 3.4275 | 3.031 |
| O=C(c1ccccc1)c1coc(-c2ccccc2)c1 [Compound 100239] |  | 7.6705 | 6.748 |
| CCCCc1ccc2nc3cc4ccccc4cc3nc2c1 [Compound 100622] | 2.25 | 3.12 |  |
| COc1ccc(-c2cc3ccccc3[nH]2)cc1 [Compound 101082] |  | 5.896 | 4.772 |
| Cc1ccc(-c2nc(-c3ccc(N=Cc4ccc(N(CCCl)CCCl)cc4C)cc3)cs2)cc1.Cl [Compound 101484] |  | 3.4 | 2.4 |
| CCC(=O)Oc1c(Br)cc(C=O)cc1OC [Compound 101539] |  | 6.8175 | 14.033 |
| C(=Nc1cnc2ccccc2c1)c1ccccn1 [Compound 101544] |  | 3.1185 | 2.767 |
| CC(=O)OCC(OC(C)=O)C(OC(C)=O)C(/C=C/N=[N+]([O-])c1ccccc1)OC(C)=O (centres unmarked) [Compound 102003] | 0.42 | 9.46 |  |
| CC[CH2][Pb]([CH2]CC)([CH2]CC)[O]C(C)=O [Compound 102516] |  | 3.4 |  |

| Structure (SMILES) | Activity 2.5 uM | Activity 10 uM | Activity 5 uM |
| --- | --- | --- | --- |
| CC(=O)N(C)c1ccc(/C=C2\C=Cc3ccccc32)cc1 [Compound 103749] | 2.76 | 5.25 |  |
| COC1=C2C=[N+](C)C3C(=C2C=CC1OC)Cc1cc2c(cc13)OCO2.O=[N+](O)O (centres unmarked) [Compound 103755] |  | 3.394 | 3.09 |
| Ic1ccc(/C=N/Nc2nnc(N/N=C/c3ccc(I)cc3)c3ccccc23)cc1 [Compound 103842] |  | 3.3 | 2.6 |
| O=C(Nc1cccc(Cl)c1)Nc1cc(C(F)(F)F)ccc1Cl [Compound 104498] |  | 8.4845 | 6.367 |
| NC(=S)N/N=C\c1ncnc2ccccc12 [Compound 104959] |  | 5.474 | 5.19 |
| O=C1C(c2c[nH]c3ccccc23)=Nc2ccc(Br)cc21 [Compound 105326] | 9.56 |  |  |
| Nc1ccc(N=Nc2ccccc2Cl)c(N)n1 [Compound 106208] |  | 4.3 | 1.8 |
| Cc1ccc2nn(-c3ccc(O)cc3)nc2c1 [Compound 106291] | 2.7 | 3.15 |  |
| CCc1ccc(N=Nc2ccc(N(C)C)cc2)cc1 [Compound 106343] |  | 4.1 | 2.6 |
| CCc1ccc(N=Nc2ccccc2)cc1 [Compound 106344] |  | 4.1 | 3.1 |
| CCc1ccc(N=Nc2ccc(Br)cc2)cc1 [Compound 106378] | 2.55 | 3.69 |  |
| Cc1ccc(N=NC2C(=O)c3ccccc3C2=O)cc1 [Compound 106656] | 1.89 | 3.26 |  |
| C[C@]12CC[C@@H]3c4ccc(Oc5nc(N6CC6)nc(N6CC6)n5)cc4CC[C@H]3[C@@H]1CCC2=O [Compound 106909] |  | 3.4 | 1.2 |
| C=CC(C)(C)c1c(OC(C)=O)cc2oc3c(OC(C)=O)c(OC(C)=O)cc(CC=C(C)C)c3c(=O)c2c1O [Compound 107229] | 1.06 | 3.14 |  |
| COc1cccc(N=Nc2ccc(N(C)C)cc2)c1 [Compound 108310] | 3.62 | 4.88 |  |
| CC(C)(C)NC/C(=C\c1ccccc1)C(=O)c1ccccc1 [Compound 109156] |  | 9.1 | 6.2 |
| CCN(CC)CCCNc1c2ccccc2nc2ccccc12.Cl.Cl [Compound 109326] | 0.69 | 17.89 |  |
| Cc1cc(N(C)C)cc(C)c1C(=Nc1ccc(N=C(NO)c2c(C)cc(N(C)C)cc2C)cc1)NO.Cl [Compound 109535] |  | 6.3 | 3.9 |
| Clc1ccc(-c2cc(C3CO3)c3cc(Cl)cc(Cl)c3n2)cc1 (centres unmarked) [Compound 112369] |  | 3.1 | 1.4 |
| c1ccc(-c2cc3ccccc3[nH]2)nc1 [Compound 112668] |  | 3.3905 | 2.854 |
| CC(=O)Oc1cccc2cc3cc(C)cc(OC(C)=O)c3c(OC(C)=O)c12 [Compound 112921] | 97.42 | 242.82 |  |
| c1ccc2c(c1)cnc1cc3c(cc12)ncc1ccccc13 [Compound 113085] | 3.18 | 5.05 |  |
| CCOC(=O)c1ccc(Nc2nc3ccccc3o2)cc1 [Compound 114995] | 2.69 | 3.43 |  |
| c1ccc(N=Nc2ccc[nH]2)cc1 [Compound 115157] |  | 40.7 | 7.1 |
| Cc1ccc([P+](Cc2ccccc2)(c2ccccc2)c2ccc(C)cc2)cc1 [Compound 116685] |  | 4.5 | 1.9 |
| CN1c2ccc(Br)c[c]2[Sn]([CH3])([CH3])[c]2cc(Br)ccc21 [Compound 118026] |  | 40.338 | 37.512 |

— patent US9932300B2, “N,N′-diarylurea compounds and N,N′-diarylthiourea compounds as inhibitors of translation initiation” (President and Fellows of Harvard College, priority 2009, dated 2018)
